pIC50: −log10 of the molar value. Several values for one entry are separate records, joined by “and”; a condition that tells them apart may be missing. Identical values can stand only once.

This is an account of results in ChEMBL document CHEMBL1126161, “3,4-Dihydroquinolin-2(1H)-ones as combined inhibitors of thromboxane A2 synthase and cAMP phosphodiesterase” (J Med Chem, 1992).

The subject of experiment [1] is Rattus norvegicus. The experiment in a line: Antihypertensive activity in conscious spontaneously hypertensive rat (SHR), percent change in Systolic blood pressure (SBP) after 2 hr at 10 mg/kg peroral dose. The class given is functional. The following applies: route oral.
The species entered for experiment [2] is Homo sapiens. Briefly: Inhibition of ADP-induced aggregation of human PRP in the absence of pig aortal microsomes (PAM). The class given is functional.
In experiment [3] the test system is Rattus norvegicus. Briefly: Antihypertensive activity in conscious spontaneously hypertensive rat (SHR), percent change in Systolic blood pressure (SBP) after 1 hr. Type of experiment: functional. Details: concentration or dose not given beside the values.
Experiment [4] relates to Rattus norvegicus. The experiment in a line: Antihypertensive activity in conscious spontaneously hypertensive rat (SHR), percent change in heart rate (beats/min) after 4 hr at 10 mg/kg peroral dose. The class given is functional. Particulars: route oral.
In experiment [5] the test system is Rattus norvegicus. Briefly: Antihypertensive activity in conscious spontaneously hypertensive rat (SHR), percent change in heart rate (beats/min) after 2 hr at 10 mg/kg peroral dose. The class given is functional. The following applies: route oral.
Experiment [6] deals with Rattus norvegicus. Briefly: Antihypertensive activity in conscious spontaneously hypertensive rat (SHR), percent change in heart rate (beats/min) after 1 hr at 10 mg/kg peroral dose. The class given is functional. Particulars: route oral.
The subject of experiment [7] is Rattus norvegicus. The experiment in a line: Antihypertensive activity in conscious spontaneously hypertensive rat (SHR), percent change in Systolic blood pressure (SBP) after 4 hr at 10 mg/kg peroral dose. The class given is functional. Particulars: route oral.
Experiment [8] is filed under the species Homo sapiens. Briefly: Ratio of IC50(w/oPAM)/IC50(w/PAM). Type of experiment: functional.
The species named for experiment [9] is Homo sapiens. The experiment in a line: In vitro inhibition of ADP-induced aggregation of human PRP in the presence of pig aortal microsomes (PAM). The class given is functional.
Experiment [10] deals with Mus musculus. The experiment in a line: Protection against mortality in pulmonary thromboembolism model in mice at 1 mg/kg. The class given is functional.
Experiment [11] has as its system Mus musculus. The experiment in a line: Protection against mortality in pulmonary thromboembolism model in mice at 9 mg/kg. Type of experiment: functional.
Experiment [12] deals with Mus musculus. The experiment in a line: Protection against mortality in pulmonary thromboembolism model in mice at 3 mg/kg. The class given is functional.
Experiment [13] is filed under the species Homo sapiens. Briefly: (§1) Ratio of IC50(PDE)/IC50(TXA2).
The target in experiment [14] is Phosphodiesterase 3 (Homo sapiens, UniProt Q14432+Q13370). Briefly: Inhibition of human blood platelet c-AMP phosphodiesterase.
Experiment [15] deals with T1, Thromboxane-A synthase (Homo sapiens, UniProt P24557).
T1 sequence (P24557 whole entry): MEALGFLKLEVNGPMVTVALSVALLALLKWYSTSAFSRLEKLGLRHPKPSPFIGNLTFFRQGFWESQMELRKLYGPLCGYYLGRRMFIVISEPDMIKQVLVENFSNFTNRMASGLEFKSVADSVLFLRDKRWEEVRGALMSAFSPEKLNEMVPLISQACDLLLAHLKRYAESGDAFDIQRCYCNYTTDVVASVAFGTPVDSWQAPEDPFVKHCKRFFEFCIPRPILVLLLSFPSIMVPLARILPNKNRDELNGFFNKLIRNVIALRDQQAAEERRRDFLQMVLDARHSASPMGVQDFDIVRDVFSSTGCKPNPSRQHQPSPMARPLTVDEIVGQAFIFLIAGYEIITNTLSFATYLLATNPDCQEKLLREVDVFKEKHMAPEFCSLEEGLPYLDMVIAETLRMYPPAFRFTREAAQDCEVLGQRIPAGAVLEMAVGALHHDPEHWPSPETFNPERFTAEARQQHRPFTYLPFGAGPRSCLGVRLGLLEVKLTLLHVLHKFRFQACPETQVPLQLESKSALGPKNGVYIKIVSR
Briefly: Compound was evaluated for the inhibition of human blood platelet, thromboxane A2 synthase.

The target in experiment [16] is T1, Thromboxane-A synthase. Briefly: Compound was evaluated for the inhibition of human blood platelet thromboxane A2 synthase.
The test system of experiment [17] is Mus musculus. Briefly: Protection against mortality in pulmonary thromboembolism model in mice at 30 mg/kg. Type of experiment: functional.
Experiment [18] relates to Mus musculus. The experiment in a line: Protection against mortality in pulmonary thromboembolism model in mice at 12 mg/kg. Type of experiment: functional.
For experiment [19], the species on record is Mus musculus. Briefly: Time course of protection against mortality in a pulmonary thromboembolism model in mice after -7h. The class given is functional.
The species named for experiment [20] is Mus musculus. Briefly: Time course of protection against mortality in a pulmonary thromboembolism model in mice after -3h. The class given is functional.
The species named for experiment [21] is Homo sapiens. The experiment in a line: Inhibition of ADP-induced platelet aggregation of human PRP without pig aortal microsomes (PAM). Type of experiment: functional.
Experiment [22] is filed under the species Homo sapiens. Briefly: Inhibition of ADP-induced platelet aggregation of human PRP in the presence of pig aortal microsomes (PAM). The class given is functional.
Experiment [23] is filed under the species Mus musculus. Briefly: Time course of protection against mortality in a pulmonary thromboembolism model in mice after -5h. The class given is functional.
Experiment [24] is filed under the species Mus musculus. Briefly: Time course of protection against mortality in a pulmonary thromboembolism model in mice after -1h. Type of experiment: functional.
Experiment [25] deals with Rattus norvegicus. Briefly: Effect of TXA2 synthase inhibitor (compound) on serum TXB2 level in rats at 50 mg/kg po, after 2 hr. Type of experiment: functional.
For experiment [26], the species on record is Homo sapiens. The experiment is described as §1. Type of experiment: functional.

As to `O=C1CCc2cc(C#Cc3cccnc3)ccc2N1`, the “Change systolic BP” value in [1] was -6%; in experiment [3] it was -13%; in experiment [7], -5%. Moreover, the pIC50 in [2] was 3.62; in experiment [9], 4.96. In addition, the results for the “Change in heart rate” value in experiment [4], in experiment [5] and in [6] were 22%, 15% and 4%, respectively. Moreover, the Ratio in experiment [8] is on record as 22.
On to `O=C1CCc2cc(C(c3ccccc3)n3ccnc3)ccc2N1` (configuration not stated), for which the pIC50 in [2] was 4.36; in experiment [9], 6.46; in experiment [15] it was 6.46. The survival at 1 mg/kg in experiment [10] was 20%. This compound came in with a survival at 9 mg/kg in [11] of 40%. Besides, in experiment [12], the survival at 3 mg/kg turned out to be 20%. Besides, in experiment [13], the Ratio was determined as 114. For the same compound, the concentration for half-maximal inhibition (IC50) in [14] came out at 40 µM.
Take `CC(Cc1cccnc1)c1ccc2c(c1)CCC(=O)N2` (configuration not stated): the negative-log IC50 (pIC50) in experiment [9] is 4.46.
Still for that read-out and setting: the same measure for `O=C1CCc2cc(CCc3cccnc3)ccc2N1`: 5.07.
As to `O=C1CCc2cc(CCn3ccnc3)ccc2N1`, the “Change systolic BP” value in experiment [1] is -2%; in experiment [3], -14%; in [7] it was -13%. Further, the pIC50 in experiment [2] was 3.85; in [9], 5.08. In addition, the “Change in heart rate” value stood at 12% in experiment [4], 34% in experiment [5] and 17% in experiment [6]. The Ratio in experiment [8] is on record as 17.
As for `CCCCC/C(=C\c1cccnc1)c1ccc2c(c1)CCC(=O)N2`, the negative logarithm of the IC50 (pIC50) in experiment [9] was 4.24.
Take `CCCCCC(Cn1ccnc1)c1ccc2c(c1)CCC(=O)N2` (configuration not stated): the pIC50 in [16] and in experiment [9] was 4.60 throughout. This compound also gave an IC50 in experiment [14] of 14 µM.
As to `Cc1c(Cn2ccnc2)c2ccccc2n1CCC(=O)O` [DAZMEGREL], the survival at 30 mg/kg in experiment [17] worked out at 20%. The survival at 12 mg/kg in experiment [18] came out at 60%. Besides, the Survival was determined as 10% in experiment [19], 20% in experiment [20], 0% in experiment [23] and 11% in experiment [24]. The same compound returned a survival at 1 mg/kg in experiment [10] of 30%. Further, the results for the negative-log IC50 (pIC50) in experiment [21] and in experiment [22] were 4.01 and 5.70, respectively. Further, the survival at 9 mg/kg in experiment [11] is 50%. Moreover, in experiment [12], the survival at 3 mg/kg was 30%.
For `O=C1CCc2cc(/C(=C/c3cccnc3)c3ccccc3)ccc2N1`, in experiment [9], the pIC50 was 3.77.
With `O=C1CCc2cc(-n3ccnc3)ccc2N1`, the pIC50 in experiment [2] is 4.10; in [9], 5.70; in experiment [15], 5.70. Besides, the Ratio in experiment [8] turned out to be 40; in experiment [26] it was 8. Also, the concentration for half-maximal inhibition (IC50) in experiment [14] is 16 µM. In [25], the inhibition in vivo at 50 mg/kg is 77%.
For `O=C1CCc2cc(/C=C/c3cccnc3)ccc2N1`, the “Change systolic BP” value in [1] is -7%; in experiment [3], -7%; in experiment [7] it was -12%. The negative logarithm of the IC50 (pIC50) in [2] was 4.02; in experiment [9], 5.21. Further, the “Change in heart rate” value in experiment [4] turned out to be 32%; in experiment [5], 23%; in experiment [6], 11%. Moreover, in [8], the Ratio is 15.
`Oc1ccc2cc(/C=C/n3ccnc3)ccc2n1`: the negative logarithm of the IC50 (pIC50) in experiment [2] was 5.55; in [9], 6.42. Further, the Ratio in experiment [8] turned out to be 7.4; in experiment [26], 10.5. Besides, the 50% inhibitory concentration (IC50) in [14] came out at 4 µM.
Consider `O=C1CCc2cc(/C=C/Cn3ccnc3)ccc2N1`, for which the “Change systolic BP” value is recorded as -17% in [1], -19% in [3] and 5% in experiment [7]. Besides, the values for the pIC50 in [2] and in [9] were 3.80 and 5.77, respectively. The figures for the “Change in heart rate” value in experiment [4], in experiment [5] and in experiment [6] were 14%, 15% and 15%, respectively. Also, the Ratio in [8] is given as 94. In experiment [25], the inhibition in vivo at 50 mg/kg was -28%.
In turn, `O=c1ccc2cc(/C=C/n3ccnc3)ccc2[nH]1` gave a pIC50 in experiment [15] of 6.42.
For `C/C(=C\n1ccnc1)c1ccc2c(c1)CCC(=O)N2`, the pIC50 is 4.89 in experiment [2] and 5.80 in [9]. Moreover, in experiment [8], the Ratio was determined as 8.1.
On the same counts, the results for `CC(Cn1ccnc1)c1ccc2c(c1)CCC(=O)N2` (configuration not stated) are 3.46, 5.26 and 64.
Taken in the same sequence, the figures for `O=C1CCc2cc(/C(=C/n3ccnc3)c3ccccc3)ccc2N1` were 3.57, 4.55 and 9.6.
On the same counts, the results for `C=C(Cn1ccnc1)c1ccc2c(c1)CCC(=O)N2` are 4.13, 5.12 and 9.7.
As to `CCCCCC(c1ccc2c(c1)CCC(=O)N2)n1ccnc1` (configuration not stated), the pIC50 is 4.43 in experiment [2] and 5.60 in [9].
As for `O=C1CCc2cc(C(Cn3ccnc3)c3ccccc3)ccc2N1` (configuration not stated), in [9], the pIC50 is 3.70.
The same measure, in the same setting: the same measure for `CCCCCC(Cc1cccnc1)c1ccc2c(c1)CCC(=O)N2` (configuration not stated): 4.43.
For the compound `C/C(=C\c1cccnc1)c1ccc2c(c1)CCC(=O)N2`, the “Change systolic BP” value in experiment [1] was -15%; in experiment [3], -19% and -16%. Moreover, the pIC50 is 4.05 in [2] and 5.66 in experiment [9]. In addition, the “Change in heart rate” value in [4] (10 mg/kg) is 12% and 25%; in experiment [5] it was 20%. Besides, in experiment [8], the Ratio is 41.
For `O=C1CCc2cc(C#CCn3ccnc3)ccc2N1`, the “Change systolic BP” value in experiment [1] was -5%; in experiment [3] it was -3%; in [7], -15%. Further, the “Change in heart rate” value in experiment [4] worked out at 11%; in experiment [5], 11%; in [6], 9%.
Take `O=C1CCc2cc(C(c3ccccc3)c3cccnc3)ccc2N1` (configuration not stated): the values for the negative-log IC50 (pIC50) in experiment [2] and in experiment [9] were 4.96 and 5.52, respectively.
